Data on 76 compounds can be found in article PMC6792352, “Limited Chemical Structural Diversity Found to Modulate Thyroid Hormone Receptor in the Tox21 Chemical Library” (Environmental Health Perspectives, 2019).

This data set can be described thus: in vitro. Conditions: rat, gh3-tre-luc cells.

Molecules are shown by their SMILES. Structures can show the parent of a compound that is named as a salt. Positions of bridges follow the written chain, without caps; N, C: chain ends. Residues, ends and D or L forms follow the SMILES beside them.

The term CC50 denotes the concentration that lowers cell viability or growth by half. Low values mean harm at low concentration, high ones better tolerance by the cells. `COC(=O)CCCCCCCCC(=O)OC` [Dimethyl decanedioate] displayed a CC50 at 24 h (AC50 (uM) modified / 1000) of more than 90 µM.

As to `CCC12COCN1COC2` [Oxazolidine-E], the CC50 at 24 h (AC50 (uM) modified / 1000) is more than 90 µM. For the compound `COC(=O)[C@H](c1ccccc1Cl)N1CCc2sccc2C1` [Clopidogrel hydrogen sulfate], the CC50 at 24 h (AC50 (uM) modified / 1000) was more than 50 µM. Take `Nc1cc(O)nc(N)n1` [2,4-Diamino-6-hydroxypyrimidine]: where the note is “AC50 (uM) modified / 1000”, the CC50 at 24 h is more than 50 µM. Still for that read-out and setting: then `O=C(CCN1CCN(CCO)CC1)N1c2ccccc2Sc2ccc(C(F)(F)F)cc21` [Ftorpropazine], with 16.3 µM. The same measure, in the same setting: then `CCC(C)(C)C` [2,2-Dimethylbutane], with more than 100 µM. On to `CC1(C)CC(N)CC(C)(CN)C1` (stereo not shown) [Isophorone diamine], for which the CC50 at 24 h (AC50 (uM) modified / 1000) was more than 90 µM. The same measure, in the same setting: the figure for `CN(C)Cc1cc(CN(C)C)c(O)c(CN(C)C)c1` [2,4,6-Tris(dimethylaminomethyl)phenol] is more than 90 µM. For the compound `CCN(CC)c1ccc2c(-c3ccc(S(=O)(=O)O)cc3S(=O)(=O)[O-])c3ccc(=[N+](CC)CC)cc-3oc2c1` [C.I. Acid Red 52], the CC50 at 24 h (AC50 (uM) modified / 1000) worked out at 13.4 µM.

Turning to `CC1(C)C(/C=C(\Cl)C(F)(F)F)C1C(=O)OC(C#N)c1cccc(Oc2ccccc2)c1` (stereo not drawn) [alpha-Cyhalothrin], the CC50 at 24 h (AC50 (uM) modified / 1000) was more than 90 µM. Still for that read-out and setting: then `CC(O)CN` (stereo not shown) [1-Amino-2-propanol], with more than 90 µM; and `C/C=C/C(=O)O` [2-Butenoic acid], with more than 90 µM; and `O=C(O)c1nc(=O)[nH]c(=O)[nH]1` [Potassium oxonate], with more than 50 µM. `CN(C)c1ccc(C(=C2C=CC(=[N+](C)C)C=C2)c2c(O)c(S(=O)(=O)[O-])cc3cc(S(=O)(=O)O)ccc23)cc1` [Acid green 50] gave a CC50 at 24 h (AC50 (uM) modified / 1000) of 30.6 µM. Same read-out and setting: then `O=C1NC(=O)[C@@]2(CCOc3ccc(F)cc32)N1` [Sorbinil], with more than 50 µM; and `C=CC(C)(CCC=C(C)C)OC(=O)c1ccccc1N` (stereo not shown) [Linalyl anthranilate], with more than 90 µM; and `CS(=O)(=O)c1ccc(C2=C(c3ccccc3)C(=O)OC2)cc1` [Rofecoxib], with more than 50 µM.

Turning to `Cc1nnc2n1-c1sc(CCc3ccc(CC(C)C)cc3)cc1C(c1ccccc1Cl)=NC2C` (stereo not shown) [Israpafant], half-maximal cytotoxicity (AC50 (uM) modified / 1000) (CC50 at 24 h) was put at 13.6 µM. `Oc1ccc(C2(c3ccc(O)cc3)CC3CC2C2CCCC32)cc1` (stereo not shown) [4,4'-Octahydro-1H-4,7-methanoindene-5,5-diyldiphenol]: the CC50 at 24 h (AC50 (uM) modified / 1000) amounted to 27.4 µM.

In turn, `CCN(CC)CCn1c(=O)c(Cc2ccc(OC)cc2)nc2ccccc21` [Caroverine hydrochloride] yielded a CC50 at 24 h (AC50 (uM) modified / 1000) of 19.1 µM. Turning to `CCc1nc(C)c[nH]1` [2-Ethyl-4-methyl-1H-imidazole], the CC50 at 24 h (AC50 (uM) modified / 1000) is more than 90 µM.

As to `COc1ccc([C@]2(C#N)CC[C@@H](C(=O)O)CC2)cc1OC1CCCC1` [Cilomilast], the CC50 at 24 h (AC50 (uM) modified / 1000) is more than 50 µM. The same measure, in the same setting: then `C=CC1CC=CCC1` (stereo not shown) [4-Vinylcyclohexene], with more than 90 µM; and `Brc1cc2ccccc2c2ccccc12` [9-Bromophenanthrene], with more than 90 µM; and `CNCCO` [N-Methylethanolamine], with more than 90 µM. Still for that read-out and setting: then `Cc1c(C(=O)O)c(O)cc2c1C(=O)c1c(O)c(C3OC(CO)C(O)C(O)C3O)c(O)c(O)c1C2=O` (stereo not shown) [Cochineal], with 29.1 µM; and `Cc1ccc(Nc2nccc(N(C)c3ccc4c(C)n(C)nc4c3)n2)cc1S(N)(=O)=O` [Pazopanib], with more than 50 µM. Still for that read-out and setting: the figure for `NCCCC[C@H](NC(=O)[C@@H]1CCCN1C(=O)[C@@H]1CSSC[C@H](N)C(=O)N[C@@H](Cc2ccccc2)C(=O)N[C@@H](Cc2ccccc2)C(=O)N[C@@H](CCC(N)=O)C(=O)N[C@@H](CC(N)=O)C(=O)N1)C(=O)NCC(N)=O` [Felypressin] (H-CFFQNCPKG-NH2; disulfide 1-6) is more than 50 µM; for `CC(C)=CCC[C@](C)(O)[C@@H]1CC=C(C)CC1` [Levomenol] it is more than 90 µM. `COC(C)(C)CCCC(C)C/C=C/C(C)=C/C(=O)OC(C)C` (stereo not shown) [Methoprene] yielded a CC50 at 24 h (AC50 (uM) modified / 1000) of more than 90 µM.

In the case of `C=CC(=O)OCCCCCCCC` [Octyl prop-2-enoate], where the note is “AC50 (uM) modified / 1000”, the CC50 at 24 h was more than 90 µM. On the same count and under the same terms, then `Cc1ccc(N)c([N+](=O)[O-])c1` [4-Methyl-2-nitroaniline], with more than 90 µM; and `CCCCCCCCCCCCCCCCCCOP(=O)([O-])OC1CC[N+](C)(C)CC1` [Perifosine], with more than 20 µM. Take `CCCO` [1-Propanol]: the half-maximal cytotoxic concentration (CC50) at 24 h (AC50 (uM) modified / 1000) is more than 90 µM. On the same count and under the same terms, the figure for `CC(=O)OCCOCCOCCOC(C)=O` [Triethylene glycol diacetate] is more than 90 µM; for `CCCCOC(=O)CCS` [Butyl 3-mercaptopropionate] it is more than 90 µM.

Regarding `CN(C)N=O` [N-Nitrosodimethylamine], the CC50 at 24 h (AC50 (uM) modified / 1000, Tox21_110001=Tox21_201663, viability, 1 nM T3 present, 24 h) was more than 90 µM. `Oc1ccc(Cl)cc1Cl` [2,4-Dichlorophenol] yielded a cytotoxic concentration (CC50) at 24 h (AC50 (uM) modified / 1000) of more than 90 µM.

Take `CC1=NN(c2ccc(C(=O)O)cc2)C(=O)C1` [4-(3-Methyl-5-oxo-4,5-dihydro-1H-pyrazol-1-yl)benzoic acid]: under “AC50 (uM) modified / 1000”, the CC50 at 24 h is more than 90 µM.

As to `CN[C@@H]1[C@@H](O)[C@@H](O[C@@H]2[C@H](O)[C@H](O[C@H]3OC(CN)=CC[C@H]3N)[C@@H](N)C[C@H]2N)OC[C@]1(C)O` [Pentisomicin], for the setting “AC50 (uM) modified / 1000”, the CC50 at 24 h was more than 50 µM. Still for that read-out and setting: the figure for `O=C(O)c1ccco1` [2-Furancarboxylic acid] is more than 90 µM. The same measure, in the same setting: then `Cc1c(C)n(CCN(C)C)c2ccc(C(=O)OCCN(C)C)cc12` [Amindocate], with 34.1 µM. For the setting “AC50 (uM) modified / 1000, Tox21_110001=Tox21_113227, viability, 1 nM T3 present, 24 h”, `CCOC(=O)C1(c2ccccc2)CCCN(C)CC1` (stereo not shown) [Ethoheptazine hydrochloride] yielded a CC50 at 24 h of more than 50 µM. Compound `Nc1ccc(S(=O)(=O)c2ccc(N)cc2)cc1` [Dapsone] had a CC50 at 24 h (AC50 (uM) modified / 1000) of more than 50 µM.

`O=C(CCCN1CCN2CCCC2C1)c1ccc(F)cc1` (stereo not shown) [Azabuperone] displayed a half-maximal cytotoxic concentration (CC50) at 24 h (AC50 (uM) modified / 1000) of more than 50 µM. In turn, `Nc1ccc2ccccc2c1` [2-Naphthylamine] showed a CC50 at 24 h (AC50 (uM) modified / 1000, Tox21_110001=Tox21_202091, viability, 1 nM T3 present, 24 h) of more than 90 µM.

Regarding `Cc1cn([C@H]2C[C@H](F)[C@@H](CO)O2)c(=O)[nH]c1=O` [Alovudine], the half-maximal cytotoxic concentration (CC50) at 24 h (AC50 (uM) modified / 1000) was more than 50 µM.

As for `COP(=O)(OC)SCn1c(=O)oc2cc(Cl)cnc21` [Azamethiphos], the CC50 at 24 h (AC50 (uM) modified / 1000) is more than 90 µM. `COC(=O)CCCC(=O)OC` [Dimethyl glutarate] displayed a CC50 at 24 h (AC50 (uM) modified / 1000) of more than 90 µM. On to `Cc1ccc(N(SC(F)(Cl)Cl)S(=O)(=O)N(C)C)cc1` [Tolylfluanid], for which it took 3.13 µM to reach half-maximal cytotoxicity (AC50 (uM) modified / 1000) (CC50 at 24 h). On the same count and under the same terms, the figure for `Clc1ccc2nsnc2c1NC1=NCCN1` [Tizanidine] is more than 50 µM. `CCCCCON=O` [Pentyl nitrite] gave a CC50 at 24 h (AC50 (uM) modified / 1000, Tox21_110001=Tox21_202898, viability, 1 nM T3 present, 24 h) of more than 90 µM. Under “AC50 (uM) modified / 1000”, `CC[N+](C)(CC)CCOC(=O)C(O)(c1ccccc1)C1CCCCC1` (stereo not shown) [Oxyphenonium bromide] came in with a CC50 at 24 h of more than 50 µM. Same read-out and setting: the figure for `CC(=O)c1sc(C)nc1C` [5-Acetyl-2,4-dimethylthiazole] is more than 90 µM; for `Nc1nc(Cl)nc2c1ncn2[C@@H]1O[C@H](CO)[C@@H](O)[C@@H]1F` [Clofarabine] it is 0.263 µM. Consider `CC[C@H](NC(=O)c1cc(F)ccc1NS(=O)(=O)c1cccc2cccnc12)c1ccccc1` [AVE3295], for which the CC50 at 24 h (AC50 (uM) modified / 1000) was more than 90 µM. The same measure, in the same setting: the figure for `Cc1ccc(N)c(S(=O)(=O)O)c1` [2-Amino-5-methylbenzenesulfonic acid] is more than 90 µM. On to `CC(C)=CCC/C(C)=C/C=N/O` [Citral oxime], for which, where the note is “AC50 (uM) modified / 1000”, the CC50 at 24 h was more than 90 µM.

As for `OC(c1ccccc1)(c1ccccc1)C1CN2CCC1CC2` (stereo not shown) [Quifenadine], half-maximal cytotoxicity (AC50 (uM) modified / 1000) (CC50 at 24 h) was put at 35.6 µM.

As to `CCCCCCCCCCCCC` [Tridecane], under “AC50 (uM) modified / 1000”, the half-maximal cytotoxic concentration (CC50) at 24 h is more than 90 µM.

As to `Nc1cc(Cl)ccc1Cl` [2,5-Dichloroaniline], the half-maximal cytotoxic concentration (CC50) at 24 h (AC50 (uM) modified / 1000) was more than 90 µM. Still for that read-out and setting: then `CCOC(=O)/C=C/c1ccccc1` [Ethyl cinnamate], with more than 90 µM; and `Cc1ccc(C)c(OCCCC(C)(C)C(=O)O)c1` [Gemfibrozil], with more than 90 µM. Same read-out and setting: the figure for `OCCc1ccccc1` [2-Phenylethanol] is more than 50 µM. The same measure, in the same setting: then `C=C(C)C(=O)OC1CC(C)CC(C)(C)C1` (stereo not shown) [3,3,5-Trimethylcyclohexyl 2-methylprop-2-enoate], with more than 90 µM; and `NCCCC(=O)O` [4-Aminobutanoic acid], with more than 50 µM; and `C(/C=C/C=C/Nc1ccccc1)=Nc1ccccc1` [N,N'-Penta-1,3-dien-1-yl-5-ylidenedianiline hydrochloride], with more than 90 µM. With `COC(=O)c1ccc(CBr)cc1` [Methyl 4-(bromomethyl)benzoate], the cytotoxic concentration (CC50) at 24 h (AC50 (uM) modified / 1000) is more than 90 µM. Under “AC50 (uM) modified / 1000, Tox21_110001=Tox21_200342, viability, 1 nM T3 present, 24 h”, `OCC(Cl)CCl` (stereo not shown) [2,3-Dichloro-1-propanol] displayed a CC50 at 24 h of more than 90 µM. As to `COC(=O)c1cccc(Cl)c1` [Methyl 3-chlorobenzoate], the CC50 at 24 h (AC50 (uM) modified / 1000) was more than 90 µM.

Regarding `C1CCCC1` [Cyclopentane], the CC50 at 24 h (AC50 (uM) modified / 1000) was more than 90 µM.

In turn, `Cc1cc(S(=O)(=O)O)ccc1N=Nc1c(O)ccc2ccccc12` [C.I. Acid Orange 8, monosodium salt] gave a CC50 at 24 h (AC50 (uM) modified / 1000) of 19.3 µM. On the same count and under the same terms, then `CSCC[C@H](NC(=O)[C@H](Cc1c[nH]c2ccccc12)NC(=O)CCNC(=O)OC(C)(C)C)C(=O)N[C@@H](CC(=O)O)C(=O)N[C@@H](Cc1ccccc1)C(N)=O` [Pentagastrin], with more than 50 µM; and `CC/C=C\C/C=C\C/C=C\C/C=C\C/C=C\CCCC(=O)O` [Eicosapentaenoic acid], with more than 50 µM.

`CC(C)(C)NCC(O)c1ccc(O)c(CO)c1` (stereo not shown) [Albuterol] displayed a CC50 at 24 h (AC50 (uM) modified / 1000) of more than 90 µM.

The compound `CCC(CC)Nc1ccc(C)c(C)c1` [N-(1-Ethylpropyl)-3,4-xylidine] displayed a CC50 at 24 h (AC50 (uM) modified / 1000) of more than 90 µM.
